Our source for the EC50 values is patent publication US11008323B2, “Substituted tricyclic 1,4-benzodiazepinone derivatives as allosteric modulators of group II metabotropic glutamate receptors” (Domain Therapeutics, priority 2015, dated 2021).

The test deals with T1, human mGluR3 (hmGluR3) (Homo sapiens, UniProt Q14832).
T1 construct: expressed in transfected cells; host or cells: HEK-293 cells, transient co-transfection by electroporation
T1 sequence (Q14832 23-879): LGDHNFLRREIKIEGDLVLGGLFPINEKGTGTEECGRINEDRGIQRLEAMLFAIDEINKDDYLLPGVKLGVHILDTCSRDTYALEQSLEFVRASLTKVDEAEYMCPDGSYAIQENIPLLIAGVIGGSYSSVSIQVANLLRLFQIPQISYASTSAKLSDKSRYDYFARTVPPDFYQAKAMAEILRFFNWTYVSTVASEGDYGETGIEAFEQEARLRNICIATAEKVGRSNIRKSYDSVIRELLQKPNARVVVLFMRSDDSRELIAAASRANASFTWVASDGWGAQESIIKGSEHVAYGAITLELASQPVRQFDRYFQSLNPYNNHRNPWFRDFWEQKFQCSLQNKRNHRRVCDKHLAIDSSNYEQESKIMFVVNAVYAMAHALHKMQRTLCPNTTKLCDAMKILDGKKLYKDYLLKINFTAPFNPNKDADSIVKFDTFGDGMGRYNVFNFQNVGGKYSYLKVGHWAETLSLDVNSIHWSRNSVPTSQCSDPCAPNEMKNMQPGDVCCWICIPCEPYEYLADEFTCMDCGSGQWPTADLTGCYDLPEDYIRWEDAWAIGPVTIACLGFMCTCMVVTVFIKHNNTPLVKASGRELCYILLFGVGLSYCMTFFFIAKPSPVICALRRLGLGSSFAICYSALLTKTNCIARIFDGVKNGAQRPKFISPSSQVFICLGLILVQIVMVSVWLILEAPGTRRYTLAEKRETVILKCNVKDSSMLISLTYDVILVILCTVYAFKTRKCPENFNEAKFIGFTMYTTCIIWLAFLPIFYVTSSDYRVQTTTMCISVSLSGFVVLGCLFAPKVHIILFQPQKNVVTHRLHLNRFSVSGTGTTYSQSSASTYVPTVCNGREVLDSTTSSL
Description: Human mGluR3 positive allosteric modulator evaluation using Ca++ functional assay. It is filed as cell-based. The following applies: hmGluR3 transiently over-expressed in HEK-293 cells; stimulated by EC50 glutamate concentration; intracellular Ca2+ (Fluo4AM, FLIPR Tetra). On the procedure:
Compounds of the present invention were tested successively for their agonist and positive allosteric modulator activities on human mGluR3 (hmGluR3) transiently over-expressed in HEK-293 cells. Compounds exert agonist activity if they are able to activate hmGluR3 by themselves, i.e., in absence of the endogenous agonist glutamate; and they exert positive allosteric modulator activity if they increase the action of the endogenous agonist glutamate.
HEK-293 cells were maintained in Modified Eagle's Medium supplemented with 10% Foetal Calf Serum, 1% Penicillin/Streptomycin and 1% non-essential amino acids at 37° C./5% CO2.
Cells were co-transfected by electroporation with four DNA plasmids encoding hmGluR3, a chimeric G protein allowing redirection of the activation signal toward intracellular calcium pathway, and two glutamate transporters so as to decrease extracellular glutamate levels and avoid receptor desensitization (Brabet I et al., Neuropharmacology 37(8), 1043-51, 1998). After transfection, cells were seeded in 75 cm^2 culture flasks, and cultured for 24 h.
Receptor activity was detected by changes in intracellular calcium measured using the fluorescent Ca^2+ sensitive dye, Fluo4AM (Molecular Probes).
The day of the assay, medium was aspirated and replaced during 3 hrs by freshly prepared buffer B (HBSS 1×, Hepes 20 mM, MgSO4-7H2O 1 mM, Na2CO3 3.3 mM, CaCl2-2H2O 1.3 mM, 0.5% BSA, Probenecid 2.5 mM). Then, cells were loaded at 37° C./5% CO2 for 1.5 hrs with buffer B containing 1 μM Fluo4AM, 0.1 mg/mL Pluronic Acid, 7 μg/mL Glutamate Pyruvate Transaminase and 2 mM sodium pyruvate. Afterwards cells were washed with buffer B. Cells were then detached from the 75 cm^2 culture flasks with Accutase® (5 min incubation at 37° C.), centrifuged (5 min at 840 rpm), resuspended in buffer B and finally seeded at a density of 30,000 cells/well in black-walled clear-bottom 384-well plates. Addition of compounds on cells and intracellular Ca^2+ measurements (excitation 485 nm, emission 525 nm) were performed by the fluorescence microplate reader FLIPR Tetra (Molecular Devices).
Agonist and positive allosteric modulator activities of compounds were consecutively evaluated on the same cells plate. Agonist activity was first tested during 10 min with the addition of compound alone on the cells. Then, the cells were stimulated by an EC50 glutamate concentration and fluorescence was recorded for additional 3 min. EC50 glutamate concentration is the concentration giving 50% of the maximal glutamate response. Agonist and/or positive allosteric modulator activity(ies) were evaluated in comparison to basal signal or signal evoked by EC50 glutamate concentration alone, respectively.
For potency determination, a dose-response test was performed using 20 concentrations of each compound of the invention. Dose-response curves were fitted using the sigmoïdal dose-response (variable slope) analysis in XLfit Scientific Curve Fitting for Excel (IDBS). EC50 of agonist/EC50 of positive allosteric modulator activity(ies) were calculated. Dose-response experiments were all performed in duplicate, two times independently.
As a reminder, the EC50 is the concentration at which the effect is half-maximal. A low value points to a more potent agent. Consider `CN1C(=O)c2cccn2-c2cc(Br)ccc2C12CC2` [Example 1, 9-Bromo-5-methyl-spiro[benzo[f]pyrrolo[1,2-a][1,4]diazepine-6,1′-cyclopropan]-4(5H)-one], for which the EC50 was 100 to 1000 nM.

`CN1C(=O)c2cc(Cl)cn2-c2cc(Br)ccc2C12CC2` [Example 5, 9-Bromo-2-chloro-5-methyl-spiro[benzo[f]pyrrolo[1,2-a][1,4]diazepine-6,1′-cyclopropan]-4(5H)-one]: the EC50 was over 1000 nM. With `CN1C(=O)c2c(Cl)ccn2-c2cc(Br)ccc2C12CC2` [Example 6, 9-Bromo-3-chloro-5-methyl-spiro[benzo[f]pyrrolo[1,2-a][1,4]diazepine-6,1′-cyclopropan]-4(5H)-one] the figure was over 1000 nM.

For the compound `CN1C(=O)c2cccn2-c2cc(Br)cc(F)c2C12CC2` [Example 7, 9-Bromo-7-fluoro-5-methyl-spiro[benzo[f]pyrrolo[1,2-a][1,4]diazepine-6,1′-cyclopropan]-4(5H)-one], the concentration giving a half-maximal response (EC50) is over 1000 nM. `CN1C(=O)c2cccn2-c2cc(Br)c(F)cc2C12CC2` [Example 9, 9-Bromo-8-fluoro-5-methyl-spiro[benzo[f]pyrrolo[1,2-a][1,4]diazepine-6,1′-cyclopropan]-4(5H)-one] had an EC50 of over 1000 nM.

Consider `CN1C(=O)c2cc(-c3ccccc3)nn2-c2cc(Br)ccc2C12CC2` [Example 11, 9-Bromo-5-methyl-2-phenyl-spiro[benzo[f]pyrazolo[1,5-a][1,4]diazepine-6,1′-cyclopropan]-4(5H)-one], for which the EC50 was over 1000 nM. With `CN1C(=O)c2cccn2-c2ccc(Br)cc2C12CC2` [Example 13, 8-Bromo-5-methyl-spiro[benzo[f]pyrrolo[1,2-a][1,4]diazepine-6,1′-cyclopropan]-4(5H)-one] the figure was over 1000 nM. Take `CN1C(=O)c2cc(-c3ccccc3)cn2-c2ccc(Br)cc2C12CC2` [Example 16, 8-Bromo-5-methyl-2-phenyl-spiro[benzo[f]pyrrolo[1,2-a][1,4]diazepine-6,1′-cyclopropan]-4(5H)-one]: the concentration for a half-maximal effect (EC50) is over 1000 nM. The compound `Cc1ncccc1-c1ccc2c(c1)-n1cc(Br)cc1C(=O)N(C)C21CC1` [Example 17, 2-Bromo-5-methyl-9-(2-methyl-pyridin-3-yl)-spiro[benzo[f]pyrrolo[1,2-a][1,4]diazepine-6,1′-cyclopropan]-4(5H)-one] yielded a half-maximal effective concentration (EC50) of 100 to 1000 nM. The figure for `Cc1ccc(-c2ccc3c(c2)-n2cc(Br)cc2C(=O)N(C)C32CC2)cn1` [Example 18, 2-Bromo-5-methyl-9-(6-methyl-pyridin-3-yl)-spiro[benzo[f]pyrrolo[1,2-a][1,4]diazepine-6,1′-cyclopropan]-4(5H)-one] is under 100 nM; for `CCc1ncccc1-c1ccc2c(c1)-n1cc(Br)cc1C(=O)N(C)C21CC1` [Example 19, 2-Bromo-5-methyl-9-(2-ethyl-pyridin-3-yl)-spiro[benzo[f]pyrrolo[1,2-a][1,4]diazepine-6,1′-cyclopropan]-4(5H)-one] it is 100 to 1000 nM. With `CN1C(=O)c2cccn2-c2cc(-c3ccncc3)ccc2C12CC2` [Example 22, 5-Methyl-9-(pyridin-4-yl)-spiro[benzo[f]pyrrolo[1,2-a][1,4]diazepine-6,1′-cyclopropan]-4(5H)-one] the figure was 100 to 1000 nM. The compound `CN1C(=O)c2cccn2-c2cc(-c3cccnc3)ccc2C12CC2` [Example 23, 5-Methyl-9-(pyridin-3-yl)-spiro[benzo[f]pyrrolo[1,2-a][1,4]diazepine-6,1′-cyclopropan]-4(5H)-one] had an EC50 of 100 to 1000 nM.

For the compound `CCc1ncccc1-c1ccc2c(c1)-n1cccc1C(=O)N(C)C21CC1` [Example 24, 5-Methyl-9-(2-ethylpyridin-3-yl)-spiro[benzo[f]pyrrolo[1,2-a][1,4]diazepine-6,1′-cyclopropan]-4(5H)-one], the EC50 lay within 100 to 1000 nM. Turning to `Cc1ccc(-c2ccc3c(c2)-n2cccc2C(=O)N(C)C32CC2)cn1` [Example 25, 5-Methyl-9-(6-methylpyridin-3-yl)-spiro[benzo[f]pyrrolo[1,2-a][1,4]diazepine-6,1′-cyclopropan]-4(5H)-one], the EC50 was under 100 nM.

Turning to `Cc1cc(-c2ccc3c(c2)-n2cccc2C(=O)N(C)C32CC2)ccn1` [Example 26, 5-Methyl-9-(2-methylpyridin-4-yl)-spiro[benzo[f]pyrrolo[1,2-a][1,4]diazepine-6,1′-cyclopropan]-4(5H)-one], the EC50 fell in the range of 100 to 1000 nM. With `Cc1cnccc1-c1ccc2c(c1)-n1cccc1C(=O)N(C)C21CC1` [Example 38, 5-Methyl-9-(3-methylpyridin-4-yl)-spiro[benzo[f]pyrrolo[1,2-a][1,4]diazepine-6,1′-cyclopropan]-4(5H)-one] the figure was 100 to 1000 nM. For `CN1C(=O)c2cccn2-c2cc(-c3cnc(N)c(C(F)(F)F)c3)ccc2C12CC2` [Example 40, 5-Methyl-9-(6-amino-5-trifluoromethyl-pyridin-3-yl)-spiro[benzo[f]pyrrolo[1,2-a][1,4]diazepine-6,1′-cyclopropan]-4(5H)-one], the EC50 is over 1000 nM. The figure for `CN1C(=O)c2cccn2-c2cc(-c3ccc4nccn4c3)ccc2C12CC2` [Example 41, 5-Methyl-9-(imidazo[1,2-a]pyridin-6-yl)-spiro[benzo[f]pyrrolo[1,2-a][1,4]diazepine-6,1′-cyclopropan]-4(5H)-one] is under 100 nM. The compound `CN1C(=O)c2cccn2-c2cc(-c3ccc(N4CCOCC4)nc3)ccc2C12CC2` [Example 42, 5-Methyl-9-(6-morpholin-4-yl-pyridin-3-yl)-spiro[benzo[f]pyrrolo[1,2-a][1,4]diazepine-6,1′-cyclopropan]-4(5H)-one] registered an EC50 of 100 to 1000 nM. In the case of `CN1C(=O)c2cccn2-c2cc(-c3ccc(N4CCCCC4)nc3)ccc2C12CC2` [Example 43, 5-Methyl-9-(3,4,5,6-tetrahydro-2H-[1,2′]bipyridinyl-5′-yl)-spiro[benzo[f]pyrrolo[1,2-a][1,4]diazepine-6,1′-cyclopropan]-4(5H)-one], the EC50 was over 1000 nM. With `CN1C(=O)c2cccn2-c2cc(C3=CCNCC3)ccc2C12CC2` [Example 46, 5-Methyl-9-(1,2,3,6-tetrahydro-pyridin-4-yl)-spiro[benzo[f]pyrrolo[1,2-a][1,4]diazepine-6,1′-cyclopropan]-4(5H)-one] the figure was over 1000 nM; with `CN1C(=O)c2cccn2-c2cc(C3=CCN(c4ccncn4)CC3)ccc2C12CC2` [Example 47, 5-Methyl-9-(1-pyrimidin-4-yl-1,2,3,6-tetrahydro-pyridin-4-yl)-spiro[benzo[f]pyrrolo[1,2-a][1,4]diazepine-6,1′-cyclopropan]-4(5H)-one], 100 to 1000 nM; with `CN1C(=O)c2cccn2-c2cc(-c3ccc(Cl)nc3)ccc2C12CC2` [Example 54, 5-Methyl-9-(6-chloropyridin-3-yl)-spiro[benzo[f]pyrrolo[1,2-a][1,4]diazepine-6,1′-cyclopropan]-4(5H)-one], under 100 nM. The figure for `Cc1ccc(-c2ccc3c(c2)-n2cccc2C(=O)N(C)C32CC2)c(C)n1` [Example 56, 5-Methyl-9-(2,6-dimethylpyridin-3-yl)-spiro[benzo[f]pyrrolo[1,2-a][1,4]diazepine-6,1′-cyclopropan]-4(5H)-one] is under 100 nM; for `CN1C(=O)c2cccn2-c2cc(-c3cc(F)ccn3)ccc2C12CC2` [Example 57, 5-Methyl-9-(4-fluoropyridin-2-yl)-spiro[benzo[f]pyrrolo[1,2-a][1,4]diazepine-6,1′-cyclopropan]-4(5H)-one] it is 100 to 1000 nM.

On to `Cc1nccnc1-c1ccc2c(c1)-n1cccc1C(=O)N(C)C21CC1` [Example 58, 5-Methyl-9-(3-methyl-pyrazin-2-yl)-5,6-spiro[benzo[f]pyrrolo[1,2-a][1,4]diazepine-6,1′-cyclopropan]-4(5H)-one], for which the EC50 was over 1000 nM. With `Cc1ncncc1-c1ccc2c(c1)-n1cccc1C(=O)N(C)C21CC1` [Example 59, 5-Methyl-9-(4-methyl-pyrimidin-5-yl)-spiro[benzo[f]pyrrolo[1,2-a][1,4]diazepine-6,1′-cyclopropan]-4(5H)-one] the figure was over 1000 nM.
